As a reminder, the IC50 is the concentration that inhibits the measured activity by half. Read a high IC50 as weaker potency.

Positions of bridges follow the written chain, without caps; N, C: chain ends. Non-standard residues stand in square brackets, D forms with d. Residues, ends and D or L forms follow the SMILES beside them. dDip = N[C@@H](C(=O)O)C(c1ccccc1)c1ccccc1; Phe(4-Br) = N[C@@H](Cc1ccc(Br)cc1)C(=O)O; Phe(4-CN) = N#Cc1ccc(C[C@H](N)C(=O)O)cc1; Phe(4-Cl) = N[C@@H](Cc1ccc(Cl)cc1)C(=O)O; Phe(4-F) = N[C@@H](Cc1ccc(F)cc1)C(=O)O; Phe(4-I) = N[C@@H](Cc1ccc(I)cc1)C(=O)O; dPhe(4-F) = N[C@H](Cc1ccc(F)cc1)C(=O)O; 2Nal = N[C@@H](Cc1ccc2ccccc2c1)C(=O)O; Bta = N[C@@H](Cc1csc2ccccc12)C(=O)O; 3Pal = N[C@@H](Cc1cccnc1)C(=O)O; Tle = CC(C)(C)[C@H](N)C(=O)O

This note sets out measurements from patent publication US9133262B2, “Somatostatin antagonists” (Ipsen Pharma S.A.S., priority 1996, dated 2015).

The assay relates to rat pituitary cells. It counts as cell-based. The following applies: 3 h. The gist of the method: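 Dispersed adult male rat pituitary cells, cultured 4-5 days, were exposed 3 h at 37° C in medium 199 with 1% BSA to 6 antagonist doses plus 1 nM SRIF and 1 nM GRF(1-29)NH2, in triplicate. GH in medium measured by radioimmunoassay; IC50 versus 1 nM SRIF fitted, maximum constrained to GRF-stimulated control.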
The molecule `CC(C)[C@@H]1NC(=O)[C@H](CCCCN)NC(=O)[C@@H](Cc2c[nH]c3ccccc23)NC(=O)[C@H](Cc2cccnc2)NC(=O)[C@H](NC(=O)[C@@H](N)Cc2ccc(C#N)cc2)CSSC[C@@H](C(=O)N[C@@H](Cc2ccc(C#N)cc2)C(N)=O)NC1=O` [Analog No. 47, H2-p-CN-Phe-D-Cys-Pal-D-Trp-Lys-Val-Cys-p-CN-Phe-NH2] (H-[Phe(4-CN)][dC][3Pal][dW]KVC[Phe(4-CN)]-NH2; disulfide 2-7) registered an IC50 of 53 nM.
In the case of `CC(C)[C@@H]1NC(=O)[C@H](CCCCN)NC(=O)[C@@H](Cc2c[nH]c3ccccc23)NC(=O)[C@H](Cc2ccc(O)cc2)NC(=O)[C@H](NC(=O)[C@@H](N)Cc2ccc3ccccc3c2)CSSC[C@@H](C(=O)N[C@@H](C(N)=O)C(c2ccccc2)c2ccccc2)NC1=O` [Analog No. 48, H2-β-Nal-D-Cys-Tyr-D-Trp-Lys-Val-Cys-D-Dip-NH2] (H-[2Nal][dC]Y[dW]KVC[dDip]-NH2; disulfide 2-7) it was 50 nM; in that of `CC(C)[C@@H]1NC(=O)[C@H](CCCCN)NC(=O)[C@@H](Cc2c[nH]c3ccccc23)NC(=O)[C@H](Cc2csc3ccccc23)NC(=O)[C@H](NC(=O)[C@@H](N)Cc2ccc3ccccc3c2)CSSC[C@@H](C(=O)N[C@@H](Cc2ccc3ccccc3c2)C(N)=O)NC1=O` [Analog No. 49, H2-β-Nal-D-Cys-Bta-D-Trp-Lys-Val-Cys-β-Nal-NH2] (H-[2Nal][dC][Bta][dW]KVC[2Nal]-NH2; disulfide 2-7), 230 nM.
For `CC(C)(C)[C@@H]1NC(=O)[C@H](CCCCN)NC(=O)[C@@H](Cc2c[nH]c3ccccc23)NC(=O)[C@H](Cc2cccnc2)NC(=O)[C@H](NC(=O)[C@@H](N)Cc2ccc(F)cc2)CSSC[C@@H](C(=O)N[C@@H](Cc2ccc3ccccc3c2)C(N)=O)NC1=O` [Analog No. 50, H2-p-F-Phe-D-Cys-Pal-D-Trp-Lys-Tle-Cys-β-Nal-NH2] (H-[Phe(4-F)][dC][3Pal][dW]K[Tle]C[2Nal]-NH2; disulfide 2-7) the value was 1.1 nM; for `CC(C)(C)[C@@H]1NC(=O)[C@H](CCCCN)NC(=O)[C@@H](Cc2c[nH]c3ccccc23)NC(=O)[C@H](Cc2cccnc2)NC(=O)[C@H](NC(=O)[C@H](N)Cc2ccc(F)cc2)CSSC[C@@H](C(=O)N[C@@H](Cc2ccc3ccccc3c2)C(N)=O)NC1=O` [Analog No. 51, H2-D-p-F-Phe-D-Cys-Pal-D-Trp-Lys-Tle-Cys-β-Nal-NH2] (H-[dPhe(4-F)][dC][3Pal][dW]K[Tle]C[2Nal]-NH2; disulfide 2-7), 12 nM; for `CC(C)[C@@H]1NC(=O)[C@H](CCCCN)NC(=O)[C@@H](Cc2c[nH]c3ccccc23)NC(=O)[C@H](Cc2cccnc2)NC(=O)[C@H](NC(=O)[C@@H](N)Cc2ccc(Br)cc2)CSSC[C@@H](C(=O)N[C@@H](Cc2ccc(Br)cc2)C(N)=O)NC1=O` [Analog No. 52, H2-Bpa-D-Cys-Pal-D-Trp-Lys-Val-Cys-Bpa-NH2] (H-[Phe(4-Br)][dC][3Pal][dW]KVC[Phe(4-Br)]-NH2; disulfide 2-7), 2.6 nM.
In the case of `CC(C)[C@@H]1NC(=O)[C@H](CCCCN)NC(=O)[C@@H](Cc2c[nH]c3ccccc23)NC(=O)[C@H](Cc2cccnc2)NC(=O)[C@H](NC(=O)[C@@H](N)Cc2ccc(I)cc2)CSSC[C@@H](C(=O)N[C@@H](Cc2ccc(I)cc2)C(N)=O)NC1=O` [Analog No. 53, H2-Iph-D-Cys-Pal-D-Trp-Lys-Val-Cys-Iph-NH2] (H-[Phe(4-I)][dC][3Pal][dW]KVC[Phe(4-I)]-NH2; disulfide 2-7) it was 2.9 nM.
In turn, `CC(C)(C)[C@@H]1NC(=O)[C@H](CCCCN)NC(=O)[C@@H](Cc2c[nH]c3ccccc23)NC(=O)[C@H](Cc2cccnc2)NC(=O)[C@H](NC(=O)[C@@H](N)Cc2c[nH]c3ccccc23)CSSC[C@@H](C(=O)N[C@@H](Cc2ccc3ccccc3c2)C(N)=O)NC1=O` [Analog No. 54, H2-Trp-D-Cys-Pal-D-Trp-Lys-Tle-Cys-β-Nal-NH2] (H-W[dC][3Pal][dW]K[Tle]C[2Nal]-NH2; disulfide 2-7) showed an IC50 of 29 nM.
In turn, `CC(C)[C@@H]1NC(=O)[C@H](CCCCN)NC(=O)[C@@H](Cc2c[nH]c3ccccc23)NC(=O)[C@H](Cc2cccnc2)NC(=O)[C@H](NC(=O)[C@@H](N)Cc2ccc(Cl)cc2)CSSC[C@@H](C(=O)N[C@@H](Cc2ccc3ccccc3c2)C(N)=O)NC1=O` [Analog No. 55, H2-p-Cl-Phe-D-Cys-Pal-D-Trp-Lys-Val-Cys-β-Nal-NH2] (H-[Phe(4-Cl)][dC][3Pal][dW]KVC[2Nal]-NH2; disulfide 2-7) registered an IC50 of 2.6 nM.
As for `CC(C)(C)[C@@H]1NC(=O)[C@H](CCCCN)NC(=O)[C@@H](Cc2c[nH]c3ccccc23)NC(=O)[C@H](Cc2cccnc2)NC(=O)[C@H](NC(=O)[C@@H](N)Cc2ccc(Cl)cc2)CSSC[C@@H](C(=O)N[C@@H](Cc2ccc3ccccc3c2)C(N)=O)NC1=O` [Analog No. 56, H2-p-Cl-Phe-D-Cys-Pal-D-Trp-Lys-Tle-Cys-β-Nal-NH2] (H-[Phe(4-Cl)][dC][3Pal][dW]K[Tle]C[2Nal]-NH2; disulfide 2-7), the IC50 was 1.8 nM.
For `CC(C)(C)[C@@H]1NC(=O)[C@H](CCCCN)NC(=O)[C@@H](Cc2c[nH]c3ccccc23)NC(=O)[C@H](Cc2cccnc2)NC(=O)[C@H](NC(=O)[C@@H](N)Cc2ccc(Cl)cc2)CSSC[C@@H](C(=O)N[C@@H](Cc2ccc(Cl)cc2)C(N)=O)NC1=O` [Analog No. 57, H2-p-Cl-Phe-D-Cys-Pal-D-Trp-Lys-Tle-Cys-p-Cl-Phe-NH2] (H-[Phe(4-Cl)][dC][3Pal][dW]K[Tle]C[Phe(4-Cl)]-NH2; disulfide 2-7) the value was 5.9 nM.
